Assay results taken from publication PMC9848257, “Design and synthesis of novel rigid dibenzo[b,f]azepines through ring closure technique as promising anticancer candidates against leukaemia and acting as selective topoisomerase II inhibitors and DNA intercalators” (Journal of Enzyme Inhibition and Medicinal Chemistry, 2023).

What was measured:
UO-31 = test: NCI-60 one-dose screen, UO-31; assay type: cell-based; conditions: Homo sapiens; UO-31, renal cancer; single dose 10 μM; read-out: Growth inhibition %
Procedure: (§1) Anti-proliferative effects of the counterparts 4a–g and 5a–g were screened against 60 human cancer cell lines, following the Developmental Therapeutics Program protocol, National Cancer Institute[35].
(§2) The anti-tumour activity of the fourteen synthesised congeners was investigated at the NCI against a panel of 60 cancer cell lines (NCI-60 Cell One-Dose Screen). The tested dibenzo[b,f]azepine derivatives were screened at a single dose level (10 μM), Table 1.

CCRF-CEM = test: NCI-60 one-dose screen, CCRF-CEM; assay type: cell-based; conditions: Homo sapiens, leukaemia, single dose 10 μM, read-out: Growth inhibition %
Procedure: as §1, §2

HCT-15 = test: NCI-60 one-dose screen, HCT-15; assay type: cell-based; conditions: Homo sapiens; HCT-15, colon cancer; single dose 10 μM; read-out: Growth inhibition %
Procedure: as §1, §2

CAKI-1 = test: NCI-60 one-dose screen, CAKI-1; assay type: cell-based; conditions: Homo sapiens; CAKI-1, renal cancer; single dose 10 μM; read-out: Growth inhibition %
Procedure: as §1, §2

COLO 205 = test: NCI-60 one-dose screen, COLO 205; assay type: cell-based; conditions: Homo sapiens; COLO 205, colon cancer; single dose 10 μM; read-out: Growth inhibition %
Procedure: as §1, §2

786-0 = test: NCI-60 one-dose screen, 786-0; assay type: cell-based; conditions: Homo sapiens; 786-0, renal cancer; single dose 10 μM; read-out: Growth inhibition %
Procedure: as §1, §2

UACC-257 = test: NCI-60 one-dose screen, UACC-257; assay type: cell-based; conditions: Homo sapiens; UACC-257, melanoma; single dose 10 μM; read-out: Growth inhibition %
Procedure: as §1, §2

OVCAR-5 = test: NCI-60 one-dose screen, OVCAR-5; assay type: cell-based; conditions: Homo sapiens; OVCAR-5, ovarian cancer; single dose 10 μM; read-out: Growth inhibition %
Procedure: as §1, §2

OVCAR-4 = test: NCI-60 one-dose screen, OVCAR-4; assay type: cell-based; conditions: Homo sapiens; OVCAR-4, ovarian cancer; single dose 10 μM; read-out: Growth inhibition %
Procedure: as §1, §2

TK-10 = test: NCI-60 one-dose screen, TK-10; assay type: cell-based; conditions: Homo sapiens; TK-10, renal cancer; single dose 10 μM; read-out: Growth inhibition %
Procedure: as §1, §2

HOP-62 = test: NCI-60 one-dose screen, HOP-62; assay type: cell-based; conditions: Homo sapiens; HOP-62, non-small cell lung cancer; single dose 10 μM; read-out: Growth inhibition %
Procedure: as §1, §2

K-562 = test: NCI-60 one-dose screen, K-562; assay type: cell-based; conditions: Homo sapiens, K562; K-562, leukaemia; single dose 10 μM; read-out: Growth inhibition %
Procedure: as §1, §2

NCI-H522 = test: NCI-60 one-dose screen, NCI-H522; assay type: cell-based; conditions: Homo sapiens; NCI-H522, non-small cell lung cancer; single dose 10 μM; read-out: Growth inhibition %
Procedure: as §1, §2

DU-145 = test: NCI-60 one-dose screen, DU-145; assay type: cell-based; conditions: Homo sapiens; DU-145, prostate cancer; single dose 10 μM; read-out: Growth inhibition %
Procedure: as §1, §2

NCI-H322M = test: NCI-60 one-dose screen, NCI-H322M; assay type: cell-based; conditions: Homo sapiens, non-small cell lung cancer, single dose 10 μM, read-out: Growth inhibition %
Procedure: as §1, §2

SNB-19 = test: NCI-60 one-dose screen, SNB-19; assay type: cell-based; conditions: Homo sapiens; SNB-19, CNS cancer; single dose 10 μM; read-out: Growth inhibition %
Procedure: as §1, §2

NCI-H226 = test: NCI-60 one-dose screen, NCI-H226; assay type: cell-based; conditions: Homo sapiens; NCI-H226, non-small cell lung cancer; single dose 10 μM; read-out: Growth inhibition %
Procedure: as §1, §2

UACC-62 = test: NCI-60 one-dose screen, UACC-62; assay type: cell-based; conditions: Homo sapiens; UACC-62, melanoma; single dose 10 μM; read-out: Growth inhibition %
Procedure: as §1, §2

U251 = test: NCI-60 one-dose screen, U251; assay type: cell-based; conditions: Homo sapiens, U-251; U251, CNS cancer; single dose 10 μM; read-out: Growth inhibition %
Procedure: as §1, §2

ACHN = test: NCI-60 one-dose screen, ACHN; assay type: cell-based; conditions: Homo sapiens, renal cancer, single dose 10 μM, read-out: Growth inhibition %
Procedure: as §1, §2

NCI-H23 = test: NCI-60 one-dose screen, NCI-H23; assay type: cell-based; conditions: Homo sapiens; NCI-H23, non-small cell lung cancer; single dose 10 μM; read-out: Growth inhibition %
Procedure: as §1, §2

MALME-3M = test: NCI-60 one-dose screen, MALME-3M; assay type: cell-based; conditions: Homo sapiens, melanoma, single dose 10 μM, read-out: Growth inhibition %
Procedure: as §1, §2

MDA-MB-231-ATCC = test: NCI-60 one-dose screen, MDA-MB-231-ATCC; assay type: cell-based; conditions: Homo sapiens, breast cancer, single dose 10 μM, read-out: Growth inhibition %
Procedure: as §1, §2

SK-MEL-5 = test: NCI-60 one-dose screen, SK-MEL-5; assay type: cell-based; conditions: Homo sapiens; SK-MEL-5, melanoma; single dose 10 μM; read-out: Growth inhibition %
Procedure: as §1, §2

MDA-MB-435 = test: NCI-60 one-dose screen, MDA-MB-435; assay type: cell-based; conditions: Homo sapiens; MDA-MB-435, melanoma; single dose 10 μM; read-out: Growth inhibition %
Procedure: as §1, §2

SK-OV-3 = test: NCI-60 one-dose screen, SK-OV-3; assay type: cell-based; conditions: Homo sapiens; SK-OV-3, ovarian cancer; single dose 10 μM; read-out: Growth inhibition %
Procedure: as §1, §2

NCI/ADR-RES = test: NCI-60 one-dose screen, NCI/ADR-RES; assay type: cell-based; conditions: Homo sapiens, ovarian cancer, single dose 10 μM, read-out: Growth inhibition %
Procedure: as §1, §2

IGROV1 = test: NCI-60 one-dose screen, IGROV1; assay type: cell-based; conditions: Homo sapiens, IGROV-1; IGROV1, ovarian cancer; single dose 10 μM; read-out: Growth inhibition %
Procedure: as §1, §2

SK-MEL-2 = test: NCI-60 one-dose screen, SK-MEL-2; assay type: cell-based; conditions: Homo sapiens; SK-MEL-2, melanoma; single dose 10 μM; read-out: Growth inhibition %
Procedure: as §1, §2

RXF 393 = test: NCI-60 one-dose screen, RXF 393; assay type: cell-based; conditions: Homo sapiens; RXF 393, renal cancer; single dose 10 μM; read-out: Growth inhibition %
Procedure: as §1, §2

OVCAR-8 = test: NCI-60 one-dose screen, OVCAR-8; assay type: cell-based; conditions: Homo sapiens; OVCAR-8, ovarian cancer; single dose 10 μM; read-out: Growth inhibition %
Procedure: as §1, §2

HS 578 T = test: NCI-60 one-dose screen, HS 578 T; assay type: cell-based; conditions: Homo sapiens, breast cancer, single dose 10 μM, read-out: Growth inhibition %
Procedure: as §1, §2

HCC-2998 = test: NCI-60 one-dose screen, HCC-2998; assay type: cell-based; conditions: Homo sapiens; HCC-2998, colon cancer; single dose 10 μM; read-out: Growth inhibition %
Procedure: as §1, §2

Compound | melting point | inhibition at 10 µM (UO-31) | inhibition at 10 µM (CCRF-CEM) | inhibition at 10 µM (HCT-15) | inhibition at 10 µM (CAKI-1) | inhibition at 10 µM (COLO 205) | inhibition at 10 µM (786-0) | inhibition at 10 µM (UACC-257) | inhibition at 10 µM (OVCAR-5) | inhibition at 10 µM (OVCAR-4) | inhibition at 10 µM (TK-10) | inhibition at 10 µM (HOP-62) | inhibition at 10 µM (K-562) | inhibition at 10 µM (NCI-H522) | inhibition at 10 µM (DU-145) | inhibition at 10 µM (NCI-H322M) | inhibition at 10 µM (SNB-19) | inhibition at 10 µM (NCI-H226) | inhibition at 10 µM (UACC-62) | inhibition at 10 µM (U251) | also measured
C1=Cc2ccccc2N(c2nnc(-c3ccccc3)o2)c2ccccc21 [Compound 5a, 2-(5 h-Dibenzo[b,f]azepin-5-yl)-5-phenyl-1,3,4-oxadiazole] | 209 to 211 °C | 39.4% | 26.1% | < 10% | < 10% | < 10% | 20% | 13.6% | < 10% | < 10% | 16.1% | 15.3% | 32.2% | < 10% | 12.4% | 50.2% | 33.2% | < 10% | < 10% | 20.1% | inhibition at 10 µM (ACHN): 16.7%; inhibition at 10 µM (NCI-H23): < 10%; inhibition at 10 µM (MALME-3M): < 10%; inhibition at 10 µM (MDA-MB-231-ATCC): < 10%; inhibition at 10 µM (SK-MEL-5): < 10%; inhibition at 10 µM (MDA-MB-435): < 10%; inhibition at 10 µM (SK-OV-3): < 10%; inhibition at 10 µM (NCI/ADR-RES): < 10%; inhibition at 10 µM (IGROV1): < 10%; inhibition at 10 µM (SK-MEL-2): < 10%; inhibition at 10 µM (RXF 393): < 10%; inhibition at 10 µM (OVCAR-8): < 10%; inhibition at 10 µM (HS 578 T): < 10%; inhibition at 10 µM (HCC-2998): 33.4%
O=C(NNC(=O)N1c2ccccc2C=Cc2ccccc21)c1ccc(Cl)cc1 [Compound 4c, N′-(4-Chlorobenzoyl)-5H-dibenzo[b,f]azepine-5-carbohydrazide] | 229 to 231 °C | < 10% | < 10% | < 10% | < 10% | < 10% | < 10% | 12.6% | < 10% | < 10% | 13.2% | < 10% | < 10% | < 10% | < 10% | < 10% | < 10% | < 10% | < 10% | < 10% | inhibition at 10 µM (ACHN): 13.3%; inhibition at 10 µM (NCI-H23): < 10%; inhibition at 10 µM (MALME-3M): < 10%; inhibition at 10 µM (MDA-MB-231-ATCC): < 10%; inhibition at 10 µM (SK-MEL-5): < 10%; inhibition at 10 µM (MDA-MB-435): < 10%; inhibition at 10 µM (SK-OV-3): < 10%; inhibition at 10 µM (NCI/ADR-RES): < 10%; inhibition at 10 µM (IGROV1): < 10%; inhibition at 10 µM (SK-MEL-2): < 10%; inhibition at 10 µM (RXF 393): < 10%; inhibition at 10 µM (OVCAR-8): < 10%; inhibition at 10 µM (HS 578 T): < 10%; inhibition at 10 µM (HCC-2998): < 10%
